Assay results: patent US12275734B1, “Pleuromutilin onium salt derivative containing a 3H-imidazo[4,5-c]pyridine side chain, and a preparation method and application thereof” (SHAANXI UNIVERSITY OF SCIENCE AND TECHNOLOGY, priority 2024, dated 2025)
In brackets after ≈: the same amount, converted by molar mass.

Key:
MRSA (ATCC 33591) [1] = test: Time-kill curve; format: cell-based, S. aureus; conditions: 1×MIC to 8×MIC, 0-24 hours
Experimental: (§1) Based on the MIC test results, the best performing active compounds were selected for time-kill curve studies.
(§2) (2) Sampling: At 0, 2, 4, 6, 8, 12, and 24 hours, aspirate 100 μL of the mixture
(§3) (3) Serial dilution and coating: Use 10 mM PBS buffer to dilute 10 times continuously, and evenly coat the diluted liquid on the agar plate
(§4) (4) Incubation and counting: Incubate in a 37° C. incubator for 24 hours and count the colonies.
(§5) (5) Sterilization curve drawing: Draw the curve of colony count change over time at different compound concentrations, and record the results as shown in FIG. 1.

[2] = tested on: Staphylococcus aureus (MRSA, ATCC 33591); test: Mouse MRSA systemic infection model, H&E tissue sections; format: in vivo; conditions: MRSA-infected mice
Experimental: Establishment of a mouse model of MRSA systemic infection
(2) Pretreatment: All mice received cyclophosphamide treatment, with the first intraperitoneal injection of 150 mg/kg cyclophosphamide 4 days before infection and the second intraperitoneal injection of 100 mg/kg cyclophosphamide 1 day before infection.
(4) Infection process: Mice were anesthetized with isoflurane and infected by intraperitoneal injection of Staphylococcus aureus (MRSA, ATCC 33591) at a concentration of 10^7 CFU/mL. […]
(2) Processing: • (a) Time point: At the first hour after infection, mice in the experimental group received intraperitoneal injection of 0.5 mL of compounds of different concentrations, while mice in the control group received the same volume of solvent. • (b) Treatment time: […]
Part II: The samples were fixed with 10% formalin buffer, then embedded in paraffin and sectioned. The sections were stained with hematoxylin and eosin (H&E) and then examined under an optical microscope.

E. coli (ATCC 25922) [3] = test: Bacterial extracellular conductivity; format: cell-based; conditions: 1×MIC and 2×MIC, vs blank control
Source text: (§6) Changes in conductivity can reflect the permeability and integrity of the cell membrane. When the cell membrane is damaged or the permeability increases, the flow of ions inside and outside the cell will increase, resulting in an increase in conductivity. In the fields of biology and cell biology, conductivity measurements are often used to assess changes in cell membrane integrity.
(§7) MRSA and E. coli cells in the logarithmic growth phase were first resuspended after high-speed centrifugation and repeated PBS buffer washing and adjusted to the appropriate optical density. Next, different concentrations of compound i (1×MIC and 2×MIC) were added to the cell suspension, and a blank control group was set. All samples were incubated at 37° C. and sampled at set time points (0, 1, 2, 4, 6, and 8 hours). […] This series of operations helps to reveal the specific mechanism of action of compound i on bacterial growth and cell structure.

MRSA (ATCC 33591) [4] = test: Cell membrane potential, DiBAC4 (3) probe; conditions: 1×MIC to 8×MIC, vs blank control
E. coli (ATCC 25922) [5] = test: Time-kill curve; format: cell-based; conditions: 1×MIC to 8×MIC, 0-24 hours
Experimental: as §1, §2, §3, §4, §5

MRSA (ATCC 33591) [6] = test: Bacterial cell morphology by FESEM; format: cell-based, S. aureus; conditions: 4 hours
Experimental: Observation of bacterial cell morphology using FESEM:
First, the bacterial suspension was adjusted to OD600=0.5, and then the bacteria were treated with compound i at a final concentration of 1×MIC and 4×MIC at 37° C. for 4 hours, and a control group without compound addition was set up. After treatment, the bacteria were collected by high-speed centrifugation at 6000 rpm for 10 minutes and washed three times with 10 mM PBS buffer to remove residual culture medium and drugs. Subsequently, the bacteria were fixed with 2.5% glutaraldehyde at 4° C. for 12 hours to maintain the integrity of the cell structure, and then washed again with PBS buffer three times to remove excess glutaraldehyde.
Next, the cells were subjected to a series of ethanol dehydration treatments (30%, 50%, 70%, 80%, 90% and 100% ethanol), and the treatment time of each concentration was sufficient to replace the intracellular water. After dehydration, the sample was resuspended in isoamyl acetate for 30 minutes and then centrifuged at 6000 rpm for 10 minutes to remove the supernatant. The sample was then dried and dotted on a stage with conductive glue, gold-plated to enhance the conductivity of the sample, and finally observed using a field emission scanning electron microscope (FESEM) to obtain high-resolution images of bacterial cell morphology and surface morphology. […]

MRSA (ATCC 33591) [7] = test: Bacterial extracellular conductivity; format: cell-based, S. aureus; conditions: 1×MIC and 2×MIC, vs blank control
Source text: as §6, §7

[8] = tested on: C. pneumoniae CWL-029, VR-1310; test: Anti-mycoplasma MIC; format: cell-based; conditions: Chlamydia pneumoniae, read-out: Antimycoplasma activity (MIC) CP-CWL-029^h
Experimental: The antimycoplasma activity was quantified using the […]. Retapamulin was used as a positive control to test the minimum inhibitory concentration of 3H-imidazo[4,5-C]pyridine pleuromutilin onium salt derivatives.
(1) Preparation of KM2 medium: Weigh 38.9 g of KM2 medium, add it to 800 mL of distilled water, boil to dissolve, sterilize under high pressure at 115° C. for 20 min, and set aside.
(2) Preparation of bacterial stock solution: Take 0.5 mL of Mhp-J^a, Mhp-LH^b, Mhr-BTS-7^c, MG-R^d, MS-WVU1853^e, MP-M129^f, CP-AR-39^g, CP-CWL-029^h, CP-TW-183^i, MH-PG-21^j, MG-G37^k cultured to the logarithmic phase and transfer it to 4.5 mL of KM2 liquid culture medium. When the culture medium turns yellow, divide each bacterium into 0.5 mL per tube and store it at −70° C. as bacterial stock solution.
(3) Determination of bacterial titer (color change unit, CCU): Take out the bacterial stock solution stored at −70° C., melt and balance to room temperature, add 0.18 mL KM2 medium to each well of the middle 4 rows of the 96-well plate (i.e. 4 parallels), take 0.02 mL and add it to the first column, dilute 10 times to 10^−11, and set up a negative control containing only KM2 medium (12th column). After sealing, put it in a 37° C. incubator and observe the results every day. The highest dilution at which the color of the medium changes is the CCU/mL of the strain.
Take an appropriate amount of seed bacterial solution and dilute it to 10^4 CCU/mL in turn according to its titer. Add drugs of each dilution in a 96-well plate in turn, and then add an equal amount of diluted bacterial solution. Set 200 μL of diluted mycoplasma bacterial solution as a positive control, 200 μL of KM2 liquid culture medium as a negative control, and set a solvent control group (10 μL of drug solvent+190 μL of mycoplasma bacterial solution). Each experiment is set up in 3 parallels. After all culture plates are sealed, they are cultured at 37° C., observed daily, and the final MIC value is recorded.

[9] = 5 mg/kg compound i, intraperitoneal

Compound	bactericidal efficiency (time-kill curve) compared with retapamulin (MRSA (ATCC 33591) [1])	kidney H&E histology [2, 9]	lung H&E histology [2, 9]	spleen H&E histology ([2]; 5 mg/kg, after 7 days of treatment)	extracellular conductivity (E. coli (ATCC 25922) [3])	membrane potential, DiBAC4 (3) fluorescence intensity (MRSA (ATCC 33591) [4])	bactericidal efficiency (time-kill curve) compared with retapamulin (E. coli (ATCC 25922) [5])	bacterial cell morphology (FESEM) (MRSA (ATCC 33591) [6]; 1×MIC)	bacterial cell morphology (FESEM) (MRSA (ATCC 33591) [6]; 4×MIC)	extracellular conductivity (MRSA (ATCC 33591) [7])	MIC [8] [µg/mL]
C=C[C@]1(C)C[C@@H](OC(=O)CSc2nc3cc[n+](Cc4ccc(C)cc4)cc3[nH]2)[C@]2(C)[C@H](C)CC[C@]3(CCC(=O)[C@H]32)[C@@H](C)[C@@H]1O [Compound i, 5-(4-methylbenzyl)-2-((2-(((3aR,4R,5R,7S,8S,9R,9aS,12R)-8-hydroxy-4,7,9,12-tetramethyl-3-oxo-7-vinyldecahydro-4,9a-propancyclopenta[8]cyclo-5-yl)oxy)-2-oxoethyl)thio)-3H-imidazo[4,5-C]pyridine-5-ium]	higher bactericidal efficiency	returned to a normal state	no obvious pathological changes	immune response was weakened	increased	significant dose-dependent increase	higher bactericidal efficiency	showed an irregular shape	obvious shrinkage or deformation	increased	–
C=C[C@]1(C)C[C@@H](OC(=O)CS[C@@H]2C[C@H]3CC[C@@H](C2)N3C)[C@]2(C)[C@H](C)CC[C@]3(CCC(=O)[C@H]32)[C@@H](C)[C@@H]1O [Retapamulin, reference compound]	–	–	–	–	–	–	–	–	–	–	0.03 (≈ 0.0579 µM)
